Measured values from article PMC5382548 (Scientific Reports, 2015).

Key:
[1] = tested on: KRAS21R (DNA, G4) AGGGCGGTGTGGGAAGAGGGA; test: spectrofluorimetric titration, one-site saturation fit; conditions: 60 mM K+; K-cacodylate pH 7.4, 25 °C; 1 μM compound; SD ≤ 0.2 × 10^6
[2] = tested on: colon cancer cell lines with mutated KRAS; test: Anti-proliferative activity, colon cancer cell lines with mutated KRAS; assay type: cell-based; conditions: Homo sapiens; range over HCT116 and SW620
From the text: These differences may be due to differing effects on cellular proliferation mechanisms, on cellular uptake and/or intracellular distribution. Assuming a passive diffusion membrane transport for IQcs, compound 2d is expected to accumulate more inside cells due to its predicted higher lipophilicity than compounds with an additional protonated basic group at physiologic pH (3d and 3e). Similarly, the tetra-cationic porphyrin TMPyP4, which is known to have low cell-membrane permeability, gave higher IC50 values.
HCT116 human colon carcinoma cells, SW620 human colorectal adenocarcinoma and HEK293 T human embryonic kidney cells were grown in Dulbecco's modified Eagle's medium (DMEM) supplemented with 10% fetal bovine serum, and 1% antibiotic/antimycotic (Invitrogen, Grand Island, NY, USA) and maintained at 37°C in a humidified atmosphere of 5% CO2. […] Following 72 h of compound exposure, cell viability was evaluated using the CellTiter 96 AQueous Non-Radioactive Cell Proliferation Assay (Promega, Madison, WI, USA), using 3-(4,5-dimethylthiazol-2-yl)-5-(3-carboxymethoxyphenyl)-2-(4-sulfophenyl)-2H-tetrazolium, inner salt (MTS) as previously described. Cell viability data were expressed as mean ± SEM or mean ± SD from at least three independent experiments. IC50 and IC65 values were determined using GaphPad Prism v.5.00 (GraphPad Software). […]

KRAS21R G4 = test: FRET melting competition assay, labelled KRAS21R; assay type: binding, human; conditions: ligand 1 μM, labelled KRAS21R 0.2 μM
Protocol: To assess selectivity of the IQc compounds 2d and 3e to different DNA sequences, we performed competitive FRET experiments with 0.2 μM of labelled KRAS21R and F21T G4 and increasing concentrations of two non-fluorescent competitors, 26mer ds-DNA or the human telomeric sequence (HT21). A decrease in ΔTm indicates the displacement of the ligand from labelled G4 by the competitor DNA.
Figure 3 FRET melting competition assay data for (a) 2d and (b) 3e (1 μM) in complex with KRAS21R and F21T G4s (0.2 μM), with increasing concentrations of non-labeled 26ds, HT21 or KRAS21R (0.4 to 25 μM) competitor, in K-cacodylate buffer (pH 7.4, 60 mM K^+).
Oligonucleotide sequences were purchased from Eurofins MWG Synthesis GmbH, Germany or STAB VIDA Genomics Lab, Caparica, Lisbon, Portugal. The labelled oligonucleotides used in the FRET assays had attached the donor fluorophore FAM (6-carboxyfluorescein) and the acceptor fluorophore TAMRA (6-carboxytetramethylrhodamine): KRAS21R: 5′-FAM-[…]-TAMRA-3′; KRAS32R: 5′-FAM-[…]-TAMRA-3′; UTR-1: 5′-FAM-GCGGCGGCGGAGG-TAMRA-3′; UTR-2: 5′-FAM-[…]-TAMRA-3; T-Loop:5′-FAM-[…]-TAMRA-3′; F21T: 5′-FAM-[…]-TAMRA-3′. Non-labelled oligonucleotides were used in FRET competition assays and in the spectroscopic studies: ds26: - d(5′-CAATCGGATCGAATT CGATCCGATTG-3′); KRAS21R: 5′-[…]-3′; HT21: 5′-[…]-3′. […]

mouse KRAS promoter = tested on: mouse KRAS promoter; set-up: method as in PMID 16687659; conditions: 3–20 μM 24 hours prior to transfection; cited from earlier work
[3] = tested on: KRAS mRNA in Panc-1 cells; set-up: method as in PMID 18490377; conditions: 12 or 24 hours, 50 μM; cited from earlier work

SMILES: Cn1cc2c3ccccc3nc-2c2cc(Br)ccc21 [2a, 2-bromo-5-methyl-indolo[3,2-c]quinoline]
- Ka [1]: 1.7e+06 M⁻¹

SMILES: CCN(CC)CCCNc1ccc2c(c1)c1[nH]c3ccccc3c1c[n+]2C [2d]
- IC50 [2]: 140 to 500 nM

SMILES: CCN(CC)CCCNc1ccc2c(c1)[nH]c1c2c[n+](C)c2ccc(NCCCN(CC)CC)cc12.[Cl-] [3e]
- Concentration of HT21 required to displace ligand from its complex with KRAS21R (KRAS21R G4): > 10 µM
- Fold higher concentration of HT21 required to displace ligand from its complex with KRAS21R (KRAS21R G4): more than 50 fold

SMILES: C[n+]1ccc(-c2c3nc(c(-c4cc[n+](C)cc4)c4ccc([nH]4)c(-c4cc[n+](C)cc4)c4ccc([nH]4)c(-c4cc[n+](C)cc4)c4nc2C=C4)C=C3)cc1 [TMPyP4, reference compound]
- Reduction of mouse KRAS promoter activity (mouse KRAS promoter): 80%
- Decrease in KRAS mRNA levels [3]: ~30%
